Experimental data from USRE38257E1, “Piperdine derivatives and hypotensives containing the same” (Ajinomoto Co., Inc., priority 1988, dated 2003).

System: male spontaneously hypertensive rats
Experiment: Decrease in systolic blood pressure in spontaneously hypertensive rats after intravenous bolus injection, indirect (tail-cuff) method
Type: in vivo, rat
Details: for Decrease in systolic blood pressure (mmHg) time after administration (hour) 0.5: 0.5 hour after administration; for Decrease in systolic blood pressure (mmHg) time after administration (hour) 4: 4 hours after administration
Protocol: As test animals, four male spontaneously hypertensive rats (weight 400 to 440 g) that were sufficiently adapted for feeding and in which hypertension was confirmed were used.
Physiological saline aqueous solution containing 2.5% Nicolle and 2.5% ethanol of sample was intravenously administered by bolus injection at a dose of 1 ml per 1 kg of body weight. Systolic blood pressure after administration was measured by the indirect (tail-cuff) method.

| Compound | Decrease in systolic blood pressure (mmHg) time after administration (hour) 0.5 (dose 10 mg/kg i.v. bolus) | Decrease in systolic blood pressure (mmHg) time after administration (hour) 4 (dose 10 mg/kg i.v. bolus) | Decrease in systolic blood pressure (mmHg) time after administration (hour) 0.5 (dose 3 mg/kg i.v. bolus) | Decrease in systolic blood pressure (mmHg) time after administration (hour) 4 (dose 3 mg/kg i.v. bolus) | also measured |
| --- | --- | --- | --- | --- | --- |
| COC1CCC(CCCN2CCC(=C3c4ccccc4C=Cc4ccccc43)CC2)CC1.Cl (stereo not shown) [Example 324, 1-(1-(4-Methoxy)cyclohecyl)-3-(4-(5H-Dibenzo[a,d]cyclohepten-5-ylidene)-1-piperidinyl)propane hydrochloride] | −137 mmHg | −46 mmHg |  |  |  |
| COC(=O)C1(CCCCCN2CCC(=C3c4ccccc4C=Cc4ccccc43)CC2)CCCCC1.Cl [Example 313, 1-(5-(4-(5H-Dibenzo[a,d]cyclohepten-5-ylidene)-1-piperidinyl)-1-pentyl)-1-methoxycarbonylcyclohexane hydrochloride] | −154 mmHg | −85 mmHg |  |  |  |
| Cl.N#Cc1ccccc1CN1CCC(=C2c3ccccc3C=Cc3ccccc32)CC1 [Example 158, 1-(2-Cyanobenzyl)-4-(5H-dibenzo[a,d]cyclohepten-5-ylidene)piperidine hydrochloride] | −8 mmHg | 7 mmHg |  |  |  |
| N-(2-(5H-Dibenzo[a,d]cyclohepten-5-ylidene)-1-piperidinyl)ethyl isonicotinamide hydrochloride [Example 244] | −19 mmHg | 4 mmHg |  |  |  |
| Cl.O=[N+]([O-])c1ccccc1C=CCN1CCC(=C2c3ccccc3C=Cc3ccccc32)CC1 [Example 302, 4-(5H-Dibenzo[a,d]cyclohepten-5-ylidene)-1-(2-nitrocinnamyl)piperidinyl hydrochloride] | −83 mmHg | −41 mmHg |  |  |  |
| CC(=O)Nc1ccc(C=CCN2CCC(=C3c4ccccc4CCc4ccccc43)CC2)cc1.Cl.Cl [Example 352, 1-(4-Acetylaminocinnamyl)-4-(10,11 dihydro-5H-Dibenzo[a,d]cyclohepten-5-ylidene)piperidine dihydrochloride] |  |  | −93 mmHg | −60 mmHg |  |
| Cl.O=[N+]([O-])c1ccc(C=CCN2CCC(=C3c4ccccc4CCc4ccccc43)CC2)cc1 [Example 350, 4-(10,11-Dihydro-5H-dibenzo[a,d]cyclohepten-5-ylidene)-1-(4-nitrocinnamyl)piperidine hydrochloride] | −136 mmHg | −85 mmHg |  |  |  |
| C1=Cc2ccccc2C(=C2CCN(CCCSc3ccccc3)CC2)c2ccccc21.Cl [Example 23, 3-(4-(5H-Dibenzo[a,d]cyclohepten-5-ylidene)-1-piperidinyl)-1-phenylthiopropane hydrochloride] | −34 mmHg | 10 mmHg |  |  |  |
| 5-(4-(5H-Dibenzo[a,d]cyclohepten-5-ylidene)-1-piperidine hydrochloride [Example 116] | −36 mmHg | −12 mmHg |  |  |  |
| CC(=O)Nc1cccc2c1CC(CN1CCC(=C3c4ccccc4C=Cc4ccccc43)CC1)C2.Cl (stereo not shown) [Example 331, 4′Acetylamino-2(4-(5H-Dibenzo[a,d]cyclohepten-5-ylidene)-1-Piperidinyl)methylindan hydrochloride] | −62 mmHg | −14 mmHg |  |  |  |
| CCCCCCCCCCCN1CCC(=C2c3ccccc3C=Cc3ccccc32)CC1.Cl [Example 136, 4-(5H-Dibenzo[a,d]cyclohepten-5-ylidene)-1-undecylpiperidine hydrochloride] | −100 mmHg | −40 mmHg |  |  |  |
| CCCCCCC(C#N)(CCCN1CCC(=C2c3ccccc3C=Cc3ccccc32)CC1)c1cccc(C(F)(F)F)c1.Cl (stereo not shown) [Example 151, 5-(4-(5H-Dibenzo[ac]cyclohepten-5-ylidene)-1-piperidinyl)-2-hexyl-2-(3-trifluoromethylphenyl)valeronitrile hydrochloride] | −81 mmHg | −43 mmHg |  |  |  |
| Cl.O=[N+]([O-])c1cccc2c1CC(CCN1CCC(=C3c4ccccc4C=Cc4ccccc43)CC1)C2 (stereo not shown) [Example 354, 2-(2-(4-(5H-Dibenzo[a,d]cyclohepten-5-ylidene)-1-piperidinyl)-1-ethyl)-4′-nitroindan hydrochloride] |  |  | −89 mmHg | −8 mmHg |  |
| COC(=O)c1ccc(C=CCN2CCC(=C3c4ccccc4C=Cc4ccccc43)CC2)cc1.Cl [Example 376, 4-(5H-Dibenzo[a,d]cyclohepten-5-ylidene)-1-(4-methoxycarbonylcinnamyl)piperidine hydrochloride] |  |  | −106 mmHg | −77 mmHg |  |
| Cl.O=C(CCCN1CCC(=C2c3ccccc3C=Cc3ccccc32)CC1)N1CCCCC1 [Example 203, 1-(4-(4-(5H-Dibenzo[a,d]cyclohepten-5-ylidene)-1-piperidinyl)butanoyl)piperidine hydrochloride] |  |  | −123 mmHg | −58 mmHg |  |
| C1=Cc2ccccc2C(=C2CCN(Cc3cccnc3)CC2)c2ccccc21.Cl.Cl [Example 162, 4-(5H-Dibenzo[a,d]cyclohepten-5-ylidene)-1-(3-Picolyl)piperidine dihydrochloride] | −62 mmHg | −3 mmHg |  |  |  |
| COc1ccc(OC)c(C=CCN2CCC(=C3c4ccccc4C=Cc4ccccc43)CC2)c1.Cl [Example 343, 4-(5H-Dibenzo[a,d]cyclohepten-5-ylidene)-1-(2,5-dimethoxycinnamyl)piperidine hydrochloride] |  |  | −83 mmHg | −45 mmHg |  |
| COC(=O)Nc1ccc(C=CCN2CCC(=C3c4ccccc4C=Cc4ccccc43)CC2)cc1.Cl [Example 378, 4-(5H-Dibenzo[a,d]cyclohepten-5-ylidene)-1-(4-methoxycarbonylaminocinnamyl)piperidine hydrochloride] |  |  |  |  | Decrease in systolic blood pressure (mmHg) time after administration (hour) 0.5 (dose 1 mg/kg i.v. bolus): −106 mmHg; Decrease in systolic blood pressure (mmHg) time after administration (hour) 4 (dose 1 mg/kg i.v. bolus): −90 mmHg |
| CCCCC(C#N)(CCCN1CCC(=C2c3ccccc3C=Cc3ccccc32)CC1)c1cccc(C(F)(F)F)c1.Cl (stereo not shown) [Example 150, 2-Butyl-5-(4-(5H-Dibenzo[a,d]cyclohepten-5-ylidene)-1-piperidinyl)-2-(3-trifluoromethylphenyl)valeronitrile hydrochloride] | −110 mmHg | −47 mmHg |  |  |  |
| CC(=O)N1CCC(CCCN2CCC(=C3c4ccccc4C=Cc4ccccc43)CC2)CC1.Cl [Example 308, 1-(N-acetyl-4-piperidinyl)-3-(4-(5H-dibenzo[a,d]cyclohepten-5-ylidene)-1-piperidinyl)propane hydrochloride] |  |  | −27 mmHg | −5 mmHg |  |
